Some results are limits rather than exact numbers.

These results are taken from ChEMBL document CHEMBL4251625, “Efficacy of 2-hydroxy-3-phenylsulfanylmethyl-[1,4]-naphthoquinone derivatives against different Trypanosoma cruzi discrete type units: Identification of a promising hit compound” (Eur J Med Chem, 2018).

A short description of data set [1]: Cytotoxicity activity against Swiss Webster mouse primary hepatocytes assessed as reduction in cell viability after 72 hrs by cell-titer-glo assay. The data set is classed as cell-based, Hepatocyte.
Data set [2] in a line: Cytotoxicity activity against African green monkey Vero cells assessed as reduction in cell viability after 72 hrs by cell-titer-glo assay. The conditions noted are these: chlorocebus sabaeus. Type of data set: cell-based.
In data set [3] the test system is Trypanosoma cruzi. The data set is described as follows: Trypanocidal activity against Trypanosoma cruzi Y trypomastigotes infected in monkey LLC-MK2 cells after 24 hrs by cell-titer-glo assay. Type of data set: functional, organism-based. The conditions noted are these: for IC50: LLC-MK2, 24 h; for IC90: LLC-MK2, in Primates, 24 h.
For data set [4], the system named is Trypanosoma cruzi. The data set is described as follows: Trypanocidal activity against infected Swiss Webster mouse derived bloodstream form of Trypanosoma cruzi Y after 24 hrs by cell-titer-glo assay. Type of data set: functional, organism-based.
Data set [5] deals with Trypanosoma cruzi. The data set is described as follows: Trypanocidal activity against Trypanosoma cruzi Dm28c intracellular amastigotes infected in African green monkey Vero cells after 72 hrs. The data set is classed as functional, organism-based.
The nature of data set [6]: Therapeutic index, ratio of CC50 for African green monkey Vero cells to IC50 for Trypanosoma cruzi Dm28c intracellular amastigotes infected in African green monkey Vero cells. The data set is classed as toxicity, cell-based. The conditions noted are these: read-out: Ratio CC50/IC50.
A short description of data set [7]: Therapeutic index, ratio of CC50 for African green monkey Vero cells to IC50 for Trypanosoma cruzi Y trypomastigotes infected in monkey LLC-MK2 cells. The following applies: read-out: Ratio CC50/IC50. Type of data set: toxicity, cell-based.
Data set [8] is described as follows: Therapeutic index, ratio of CC50 for African green monkey Vero cells to IC50 for infected Swiss Webster mouse derived bloodstream form of Trypanosoma cruzi Y. Type of data set: toxicity. The conditions noted are these: read-out: Ratio CC50/IC50.
Data set [9] has as its system Trypanosoma cruzi. In words: Trypanocidal activity against Trypanosoma cruzi Brazil trypomastigotes infected in monkey LLC-MK2 cells after 24 hrs by luminescent assay. The data set is classed as functional, organism-based.
In data set [10] the test system is Trypanosoma cruzi. In words: Trypanocidal activity against Trypanosoma cruzi CL trypomastigotes infected in monkey LLC-MK2 cells after 24 hrs by luminescent assay. Type of data set: functional, organism-based. The following applies: CL Brener.
Data set [11] relates to Trypanosoma cruzi. The data set is described as follows: Trypanocidal activity against Trypanosoma cruzi Dm28c trypomastigotes infected in monkey LLC-MK2 cells after 24 hrs by luminescent assay. Type of data set: functional, organism-based.
Data set [12] relates to Trypanosoma cruzi. The data set is described as follows: Trypanocidal activity against Trypanosoma cruzi Y intracellular amastigotes infected in Swiss Webster mouse cardiomyocytes after 72 hrs. Type of data set: functional, organism-based.
Data set [13] can be described thus: Cytotoxicity against Swiss Webster mouse cardiomyocytes after 72 hrs. The arrangement: species or system Cardiac Muscle Cell.
The nature of data set [14]: Therapeutic index, ratio of CC50 for Swiss Webster mouse cardiomyocytes to IC50 for Trypanosoma cruzi Y intracellular amastigotes infected in Swiss Webster mouse cardiomyocytes. The data set is classed as toxicity, cell-based. The following applies: read-out: Ratio CC50/IC50.

Turning to `O=C1C=C(O)C(=O)c2ccccc21` [LAWSONE], the CC50 at 72 h in data set [1] is greater than 500 µM; in [2], 214 µM. Also, the results for the IC50 in the data set with Trypanosoma cruzi [3], with Trypanosoma cruzi [4] and with Trypanosoma cruzi [5] were greater than 100 µM, greater than 100 µM and 89 µM, respectively. The IC90 with Trypanosoma cruzi [3], with Trypanosoma cruzi [4] and in the data set with Trypanosoma cruzi [5] was greater than 100 µM in each case. Besides, the selectivity ratio in data set [6] was 2.39.

Turning to `O=C(Cn1ccnc1[N+](=O)[O-])NCc1ccccc1` [BENZNIDAZOLE], the CC50 at 72 h in data set [1] was greater than 500 µM; in data set [2] it was 366 µM; in [13], greater than 500 µM. In addition, the IC50 with Trypanosoma cruzi [3] turned out to be 29.8 µM; with Trypanosoma cruzi [4] it was 18.1 µM; in the data set with Trypanosoma cruzi [9] (LLC-MK2, 24 h), 93.3 µM; in the data set on Trypanosoma cruzi [10] (LLC-MK2, 24 h), 69.3 µM; in the data set with Trypanosoma cruzi [11] (LLC-MK2, 24 h) it was 24.7 µM; in the data set on Trypanosoma cruzi [5] it was 4.39 µM. The compound also returned an IC50 with Trypanosoma cruzi [12] of 1.1 µM. The IC90 in the data set with Trypanosoma cruzi [3] is 68.5 µM; with Trypanosoma cruzi [4], greater than 100 µM; in the data set with Trypanosoma cruzi [9] (LLC-MK2, in Primates, 24 h), greater than 100 µM; in the data set on Trypanosoma cruzi [10] (LLC-MK2, in Primates, 24 h), greater than 100 µM; in the data set on Trypanosoma cruzi [11] (LLC-MK2, in Primates, 24 h), 92.3 µM; with Trypanosoma cruzi [5], 24.9 µM. The selectivity ratio is 12.2 in [7], 20.2 in data set [8], 83.2 in data set [6] and greater than 455 in [14].
